According to patent US20020086427A1, “Inducible eukaryotic expression system that regulates protein translation” (priority 2000, published 2002):

Key:
[1] = system: hEpo expression in C2C12 mouse myoblast cell line; assay: hEpo expression (ELISA of supernatant) in C2C12 myoblasts transfected with stop-codon-mutated hEpo constructs, with or without aminoglycoside; type: cell-based; conditions: for induction of hEpo expression compared to cells not given aminoglycoside: 0.2 mg/ml aminoglycoside, stop-codon-mutated hEpo constructs in C2C12 cells; for read-through of the stop codon mutation: in vitro, C2C12 cells
Procedure: In this example, three different mutated human Epo genes (prepared as described in Example 1) were individually transfected into myoblasts and expression of the genes was subsequently regulated by application of two different aminoglycosides.
The C2C12 mouse myoblast cell line (ATCC) was maintained in DMEM, 10% fetal bovine serum, 1% penicillin/streptomycin and 1% glutamine.
C2C 12 cells were plated at […] on the afternoon before transfection. 15 μg of wildtype or mutated hEpo plasmid DNA was mixed with 50 μl of Lipofectamine (Gibco) and 2 mls of Opti-MEM (Gibco) and incubated at room temperature for 15 minutes for DNA/liposome complexes to form. Cells were washed twice with 5 mils of Opti-MEM. Two ml of Opti-MEM and the DNA/liposome complexes were added and incubated at 37° C. in 5% CO2 for 5 hours. Eight ml of growth medium (DMEM+10% FBS) was added to cells and incubated overnight at 37° C.
The following day, 10 mls of fresh growth medium was added to the cells with or without 0.2 mg/ml of one of two aminoglycosides: G418 (Sigma) or gentamycin sulfate (Sigma). Cells were allowed to incubate for an additional 72 hours and a sample of the supernatant was taken for transgene analysis at 24, 48, and 72 hours.
Supernatants from transfected cells were analyzed for hEpo expression using the Quantikine IV human Epo ELISA kit (R&D Systems). Samples were diluted within the linear range of the assay using specimen diluent and assayed using a microplate reader (Molecular Devices) at 450 nm.
In this example, a series of additional mutated human Epo constructs were prepared, into which stop codon mutations were introduced at different codon positions from those described in Example 1. These constructs were introduced into C2C12 mouse myoblasts as described in Example 2 and the inducibility of hEpo activity from these constructs using either gentamycin sulfate (GS) or G418 was examined as described in Example 2. The constructs were prepared by standard PCR mutagenesis, as described in Example 1, and introduced a stop codon mutation into the human Epo sequence at either nucleotide position 307 (pVR1012hEpo.307), position 434 (pVR1012hEpo.434), position 208 (pVR1012hEpo.208), position 214 (pVR1012hEpo.214) or position 199 (pVR1012hEpo. 199).
Data for constructs with mutations at either nucleotide position 437 (pVR1012hEpo.437), position 454 (pVR1012hEpo.454) or position 526 (pVR1012hEpo.526), prepared as described in Example 1, are included for comparison purposes.

[2] = system: naturally-occurring premature stop codon mutations in the dystrophin gene; conditions: mice; cited from earlier work

Row | Molecule | induction of hEpo expression compared to cells not given aminoglycoside [1] | read-through of the stop codon mutation [1] [%] | effective dosage [2] [mg/kg]
1 | gentamycin sulfate | 6-8 fold | 3 | 17
2 | CN[C@@H]1[C@@H](O)[C@@H](O[C@@H]2[C@@H](O)[C@H](O[C@H]3O[C@H]([C@@H](C)O)[C@@H](O)[C@H](O)[C@H]3N)[C@@H](N)C[C@H]2N)OC[C@]1(C)O [G418] | 20-50 fold | 10 | –
